# Laboratory results published in US7763772B2, “Activation of the arabidopsis hypertall (HYT1/YUCCA6) locus affects several auxin mediated responses” (Purdue Research Foundation, priority 2006, dated 2010).
# B1: MBP:YUCCA6 fusion protein (Arabidopsis thaliana) (protein)
# chain: MDFCWKREMEGKLAHDHRGMTSPRRICVVTGPVIVGAGPSGLATAACLKERGITSVLLERSNCIASLWQLKTYDRLHLHLPKQFCELPIIPFPGDFPTYPTKQQFIEYLEDYARRFDIKPEFNQTVESAAFDENLGMWRVTSVGEEGTTEYVCRWLVAATGENAEPVVPRFEGMDKFAAAGVVKHTCHYKTGGDFAGKRVLVVGCGNSGMEVCLDLCNFGAQPSLVVRDAVHVLPREMLGTSTFGLSMFLLKWLPIRLVDRFLLVVSRFILGDTTLLGLNRPRLGPLELKNISGKTPVLDVGTLAKIKTGDIKVCSGIRRLKRHEVEFDNGKTERFDAIILATGYKSNVPSWLKENKMFSKKDGFPIQEFPEGWRGECGLYAVGFTKRGISGASMDAKRIAEDIHKCWKQDEQVKKI
# notes: The full-length YUCCA6 ORF was synthesized from Col-0 cDNA by PCR amplification and subcloned into the expression vector pMAL-c2; made in house; host or cells: Escherichia coli BL21
# Tests used:
# [1] = tested on: Arabidopsis thaliana plants (wild-type, yucca6-1D, yucca6-2D); assay: Resistance to the toxic Trp analog 5-methyl-Trp in MS medium; type: in vivo; conditions: MS medium containing 80 NM 5-methyl-Trp
# Excerpt: It has been proposed that plants use […] and Trp-independent routes to synthesize auxin (Normanly et al., 1993; Müller and Weiler, 2000; Woodward and Bartel, 2005). To investigate in which pathway YUCCA6 may participate, we tested the resistance of yucca6-1D and yucca6-2D to the toxic Trp analog, 5-methyl-Trp.
# YUCCA6 gene expression = YUCCA6 gene expression after hormone treatment (RT-PCR); type: in vivo, Arabidopsis thaliana; conditions: RNA from 2-week old seedlings including roots
# Protocol: (§1) YUCCA gene expression was checked by RT-PCR. RNA was prepared from 2-week old seedlings including roots. […] UBC was used as a loading control.
# (§2) Arabidopsis YUCCA6 is one of 11 yucca family members. YUCCA6 belongs to the same sub-family with YUCCA2. We determined if YUCCA6 gene expression is regulated by ABA.
# YUCCA2 gene expression = YUCCA2 gene expression after ABA treatment (RT-PCR); type: in vivo, Arabidopsis thaliana; conditions: RNA from 2-week old seedlings including roots
# Protocol: as §1, §2
# YUCCA 1 gene expression = assay: YUCCA1 gene expression after ABA treatment (RT-PCR); type: in vivo, Arabidopsis thaliana; conditions: RNA from 2-week old seedlings including roots
# Protocol: as §1, §2
# [2] = biological target: T1, MBP:YUCCA6 fusion protein (Arabidopsis thaliana, UniProt Q8VZ59); assay: Recombinant YUCCA6 enzyme activity (substrate-dependent NADPH oxidation); type: biochemical; conditions: tryptamine as a substrate; 0.1 mM NADPH, pH 8.0, 22° C.
# T1 construct: The full-length YUCCA6 ORF was synthesized from Col-0 cDNA by PCR amplification and subcloned into the expression vector pMAL-c2; made in house; host or cells: Escherichia coli BL21
# T1 sequence (Q8VZ59 1-417): B1 chain
# Excerpt: (§3) It has been reported that maltose-binding protein (MBP):YUCCA1 fusion proteins have catalytic activity to convert tryptamine to N-hydroxyl tryptamine (Zhao et al., 2001). To investigate if YUCCA6 also is involved in oxidation of tryptamine, we tested YUCCA6 activity with MBP:YUCCA6 fusion protein expressed in and purified from bacteria. It is known that FMOs oxidize NADPH by transfer of electrons to oxygen. […] The catalytic activity of YUCCA6 for oxidation of tryptamine, together with resistance of yucca6 mutants to 5-methyl-Trp, strongly implies that YUCCA6 has an important function in Trp-dependent auxin biosynthesis.
# (§4) The full-length YUCCA6 ORF was synthesized from Col-0 cDNA by PCR amplification and subcloned into the expression vector pMAL-c2. […] The protein contents were measured using BIO-RAD Protein Assay (no. 500-0006), and protein was separated by SDS-PAGE.
# (§5) The activities of MBP:YUCCA6 and MBP proteins were measured by determining the rates of substrate-dependent NADPH oxidation consumption. […] The rates of NADPH oxidation caused by addition of tryptamine were monitored at 340 nm for 5 minutes at 22° C. using a UV-visible spectrophotometer (model UV-1601; Shimazu). The change in absorbance per minute was converted to micromoles NADPH consumed per minute using the extinction coefficient 6,220 M^−1 cm^−1 for NADPH. […]
# [3] = substrate: NCCc1c[nH]c2ccccc12; assay: as above; type: biochemical, Arabidopsis thaliana; conditions: other: tryptamine as a substrate, 0.1 mM NADPH, pH 8.0, 22° C.
# Excerpt: as §3, §4, §5
molecule,measurement,setting,value
Cc1ccc2[nH]cc(C[C@H](N)C(=O)O)c2c1 [5-methyl-Trp],survival and growth of wild-type plants,[1]; wild-type plants,could not
same,survival and growth of yucca6-1D plants,[1]; yucca6-1D,could survive and grow
same,survival and growth of yucca6-2D plants,[1]; yucca6-2D,could survive and grow
"CC1=CC(=O)CC(C)(C)[C@@]1(O)/C=C/C(C)=C\C(=O)O [ABA, Abscisic Acid]",regulation of YUCCA6 transcript level,YUCCA6 gene expression,down-regulated
same,regulation of YUCCA2 gene expression,YUCCA2 gene expression,down-regulated
same,regulation of YUCCA 1 gene expression,YUCCA 1 gene expression,does not change
"NC1(C(=O)O)CC1 [ACC, 1-aminocylopropane-1-carboxylic acid]",regulation of YUCCA6 transcript level,YUCCA6 gene expression,could not regulate
NCCc1c[nH]c2ccccc12 [tryptamine],Vmax,[2],9.46 Nmol NADPH min^−1 mg^−1
B1,Km,[3],274 µM
